The values below come from patent US6921772B2, “Methods and compositions for the treatment of chronic lymphocytic leukemia” (Salmedix, Inc., priority 1998, dated 2005).

In one series the test system is patient with B-cell CLL. Description: In vivo administration of NSAIDs to a B-cell CLL patient: blood cell counts.
In series [1] the test system is isolated mononuclear cells from the peripheral blood of the patient. Description: FITC annexin / propidium iodide flow cytometry of the patient's isolated mononuclear cells after etodolac. It counts as in vivo, human. The conditions noted are these: baseline and daily for three days after administration, as lymphocyte count dropped. The procedure: To examine the possibility that a metabolite of etodolac or a serum factor may be necessary to achieve the clinical effect, the in vivo percentages of viable, apoptotic and late apoptotic or necrotic cells of isolated mononuclear cells were measured by flow cytometry using FITC annexin and propridium iodide assay. During early apoptosis and preceding DNA fragmentation, phosphatydylserine becomes exposed and bond by annexin V. Later in apoptosis and in cell necrosis, cells also become permeable to propidium iodide. FITC labeled […] and propidium iodide are easily detected by flow cytometry. Mononuclear cells were isolated from the peripheral blood of the patient by differential centrifugation on ficoll-Hypaque at baseline and then daily for three additional days after administration of etodolac. […] However, the percentage of viable cells increased and the percentage of late apoptotic or necrotic cells decreased. […] To examine the possibility that etodolac might enhance the clearance of leukemic lymphocytes by enhancing phagocytosis by macrophages, TAMRA stained isolated mononuclear cells from the patient were incubated with normal human adherent mononuclear cells in the presence of naproxen or etodolac in vitro. After an overnight incubation, the adherent cells were isolated and analyzed by flow cytometry for uptake of TAMRA stained cells from the patient. No increase in the uptake of the stained leukemic mononuclear cells by the normal adherent cells could be detected for etodolac compared to naproxen. To test the possibility that a metabolite of etodolac could be responsible for the effect, serum from the patient was collected free of drug, after receiving naproxen 375 mg bid for two days and after receiving etodolac 400 mg bid for two days, and tested in the above manner.

For series [2], the system named is normal human adherent mononuclear cells. The experiment in a line: Uptake of TAMRA stained patient mononuclear cells by normal adherent mononuclear cells (phagocytosis), flow cytometry. It counts as cell-based. The method, then: To examine the possibility that a metabolite of etodolac or a serum factor may be necessary to achieve the clinical effect, the in vivo percentages of viable, apoptotic and late apoptotic or necrotic cells of isolated mononuclear cells were measured by flow cytometry using FITC annexin and propridium iodide assay. During early apoptosis and preceding DNA fragmentation, phosphatydylserine becomes exposed and bond by annexin V. Later in apoptosis and in cell necrosis, cells also become permeable to propidium iodide. FITC labeled […] and propidium iodide are easily detected by flow cytometry. Mononuclear cells were isolated from the peripheral blood of the patient by differential centrifugation on ficoll-Hypaque at baseline and then daily for three additional days after administration of etodolac. […] However, the percentage of viable cells increased and the percentage of late apoptotic or necrotic cells decreased. […] After an overnight incubation, the adherent cells were isolated and analyzed by flow cytometry for uptake of TAMRA stained cells from the patient. No increase in the uptake of the stained leukemic mononuclear cells by the normal adherent cells could be detected for etodolac compared to naproxen. […]

The mark [3] stands for this setting: B-cell CLL patient, count after NSAID course, etodolac 300 mg BID, mean +/- SD of 3 experiments.

As to `COc1ccc2c(c1)c(CC(=O)O)c(C)n2C(=O)c1ccc(Cl)cc1` [Indomethacin, indomethacin], in the series on patient with B-cell CLL (summary of Table 1), the “effect on lymphocyte count of the patient (in words)” value (shortened to “effect on lymphocyte count”) was “relatively little impact” and the “effect on white blood cell count of the patient (in words)” value (shortened to “effect on white blood cell count”) is “relatively little impact”.
On to `CN1C(C(=O)Nc2ccccn2)=C(O)c2ccccc2S1(=O)=O` [Piroxicam, piroxicam], for which, in the series on patient with B-cell CLL (summary of Table 1), the “effect on lymphocyte count” value is given as “relatively little impact” and the “effect on white blood cell count” value is on record as “relatively little impact”.
For `Cc1ccc(C(=O)c2ccc(CC(=O)O)n2C)cc1` [Tolmetin, tolmetin], in the series with patient with B-cell CLL (summary of Table 1), the “effect on lymphocyte count” value is “relatively little impact” and the “effect on white blood cell count” value is listed as “relatively little impact”.
With `COc1ccc2cc([C@H](C)C(=O)O)ccc2c1` [Naproxen, naproxen], in the series on patient with B-cell CLL (summary of Table 1), the “effect on lymphocyte count” value is on record as “relatively little impact” and the “effect on white blood cell count” value is “relatively little impact”.
For `O=C(O)CCc1nc(-c2ccccc2)c(-c2ccccc2)o1` [Oxaprozin, oxaprozin], in the series on patient with B-cell CLL (summary of Table 1), the “effect on lymphocyte count” value is listed as “relatively little impact” and the “effect on white blood cell count” value was “relatively little impact”.
`CC(C)Cc1ccc(C(C)C(=O)O)cc1` (stereo not shown) [Ibuprofen, ibuprofen]: the “effect on lymphocyte count” value in the series with patient with B-cell CLL (summary of Table 1) is “relatively little impact”.
Consider `O=C(O)Cc1ccccc1Nc1c(Cl)cccc1Cl` [Diclofenac, diclofenac], for which, in the series with patient with B-cell CLL (summary of Table 1), the “effect on lymphocyte count” value is listed as “relatively little impact” and the “effect on white blood cell count” value was “relatively little impact”.
On to `CCc1cccc2c3c([nH]c12)C(CC)(CC(=O)O)OCC3` (racemic) [Etodolac, 1,8-diethyl-1,3,4,9-tetrahydro[3,4-b]-indole-1-acetic acid], for which, in series [1], the “percentage of apoptotic cells” value is recorded as “remained the same”, the “percentage of late apoptotic or necrotic cells” value is reported as “decreased” and the “percentage of viable cells” value is “increased”. For the same compound, the “uptake of stained leukemic mononuclear cells by normal adherent cells” value in series [2] (drug present in vitro, overnight incubation, compared to naproxen) was “No increase”. Besides, the “phagocytosis of lymphocytes with patient serum” value in series [2] (serum collected after etodolac 400 mg bid for two days, compared with drug-free serum and serum after naproxen 375 mg bid) is listed as “No enhancement”. Moreover, in the series on patient with B-cell CLL (setting [3]), the “Lymphocyte Ct. x E-3” value is 20.68 x E-3, the “Neutrophil Count x E-3” value came to 3.58 x E-3 and the “WBC Count x E-3” value came to 25.27 x E-3. The “platelet count (in words)” value in the series with patient with B-cell CLL (Oct. 28, 1997, after 300 mg BID Oct. 25-27, 1997) is “normal”. Besides, in the series on patient with B-cell CLL (Oct. 28, 1997, after 300 mg BID Oct. 25-27, 1997, count before treatment 27.44×E3), the lymphocyte count turned out to be 6.70 ×E3. Besides, the “white blood cell count” value with patient with B-cell CLL (Oct. 28, 1997, after 300 mg BID Oct. 25-27, 1997, count before treatment 34.3×E3) is on record as 13.40 ×E3. Further, in the series with patient with B-cell CLL (summary of Table 1), the “effect on lymphocyte count” value is reported as “substantial reductions”, the “effect on platelet count (in words)” value was “increased significantly” and the “effect on white blood cell count” value is “substantial reductions”.
Turning to `COc1ccc2cc(CCC(C)=O)ccc2c1` [Nabumetone, nabumetone], in the series with patient with B-cell CLL (summary of Table 1), the “effect on lymphocyte count” value was “relatively little impact” and the “effect on white blood cell count” value is recorded as “relatively little impact”.
On to `CC1=C(CC(=O)O)c2cc(F)ccc2/C1=C\c1ccc([S+](C)[O-])cc1` (stereo not shown) [Sulindac, sulindac], for which, in the series with patient with B-cell CLL (summary of Table 1), the “effect on lymphocyte count” value is “relatively little impact” and the “effect on white blood cell count” value is on record as “relatively little impact”.
